Results as given in US11970469B2 (Oxford University Innovation Limited, priority 2018, dated 2024).

Biological target: GST-human KRas166 (G12V) GPPNHP (Homo sapiens, UniProt P01116, G12V)
Test: KRas small-molecule screening by SPR (BIACORE T200)
Format: binding
Set-up: KRAS166 (G12V) was immobilized between 10,000 to 15,000 Response Units; made in house; host or cells: E. coli C41(DE3)
Details: compounds at final concentration of 100 uM; immobilised KRAS166 (G12V) GPPNHP; no unit printed (method speaks of response units)
Protocol: For SPR assays pGEX-KRAS(G12V) plasmid was transformed into E. coli C41(DE3). Bacterial cells were cultured at 37° C. to an OD600 of 0.6 and induced with IPTG (final 0.1 mM) at 18° C. over night. The GST fusion proteins were extracted from bacteria pellets after cell disruption in 140 mM NaCl, 2.7 mM KCl, 10 mM NaH2PO4, 1.8 mM KH2PO4, 1 mM EDTA, 2 mM MgCl2 pH 7.4 and purified by glutathione-sepharose column chromatography (GE Healthcare), eluting with 50 mM Tris-HCl pH8.0, 10 mM reduced glutathione, 1 mM DTT, 2 mM MgCl2. The eluted proteins were dialysed against 50 mM Tris-HCl pH8.0, 1 mM DTT, 2 mM MgCl2 and concentrated to 10 mg/ml using a Biomax-30 ULTRAFREE-15 centrifugal filter device (Millipore). Purified KRAS protein was loaded with GPPNHP as described elsewhere (Pacold et al., 2000). Loaded protein was then purified by gel filtration on a HiLoad Superdex-75 HR column (GE Healthcare) in 1×PBS pH7.4, 5 mM MgCl2 and concentrated for storage. Protocol for KRas small-molecule screening and affinity measurements by SPR
To a previously immobilized CM5 chip (GE Healthcare BR-1005-30) with anti GST antibody via amine coupling method, GST in channel 1 and GST-human KRas166 (G12V) GPPNHP in channel 2 were immobilised. GST was immobilised between 2,000 and 5,000 Response units. KRAS166 (G12V) was immobilized between 10,000 to 15,000 Response Units. […]

Structure (SMILES): COc1cccc(-c2ccc(Nc3ccc(C(=O)NCC4CCN(C(=O)OC(C)(C)C)CC4)cc3)cc2)c1 [Example 19]
- SPR: 33
